Measured values as given in PubChem BioAssay (NCI).
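Exposure lasted 48 hours, with cells grown in 96-well plates and compounds tested at five concentrations. Definition used: TGI = concentration required for complete inhibition of growth.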

Assays:
Assay in all cases: NCI tumour cell line growth inhibition, 48 h
[1] = system: LOX IMVI melanoma
[2] = system: K-562 leukemia
[3] = system: TK-10 renal
[4] = system: HCT-15 colon
[5] = system: HOP-62 NSCLC
[6] = system: NCI-H23 lung
[7] = system: A549 NSCLC
[8] = system: MDA-MB-435
[9] = system: KM12 colon
[10] = system: SF-539 CNS
[11] = system: SR leukemia
[12] = system: SF-295 CNS
[13] = system: EKVX NSCLC
[14] = system: ACHN renal
[15] = system: NCI-H460 lung
[16] = system: HT29 colon
[17] = system: COLO 205 colon
[18] = system: OVCAR-3 ovarian
[19] = system: HS 578T breast
[20] = system: OVCAR-8 ovarian
[21] = system: MDA-N
[22] = system: A498 renal
[23] = system: HOP-92 NSCLC
[24] = system: NCI/ADR-RES ovarian
[25] = system: SK-OV-3 ovarian
[26] = system: SK-MEL-28 melanoma
[27] = system: PC-3 prostate
[28] = system: U251 CNS
[29] = system: UACC-62 melanoma
[30] = system: T-47D breast
[31] = system: IGROV1 ovarian
[32] = system: MDA-MB-231 breast
[33] = system: MOLT-4 leukemia
[34] = system: DU-145 prostate
[35] = system: UACC-257 melanoma
[36] = system: OVCAR-4 ovarian
[37] = system: OVCAR-5 ovarian
[38] = system: HCT-116 colon
[39] = system: SNB-19 CNS
[40] = system: RPMI-8226 leukemia
[41] = system: 786-0 renal
[42] = system: SK-MEL-5 melanoma
[43] = system: SK-MEL-2 melanoma
[44] = system: CAKI-1 renal
[45] = system: HCC-2998 colon
[46] = system: NCI-H522 lung
[47] = system: BT-549 breast
[48] = system: MCF7 breast
[49] = system: SN12C renal
[50] = system: SF-268 CNS
[51] = system: UO-31 renal
[52] = system: CCRF-CEM leukemia
[53] = system: HL-60(TB) leukemia
[54] = system: SW-620 colon
[55] = system: M14 melanoma
[56] = system: SNB-75 CNS
[57] = system: NCI-H226 lung
[58] = system: RXF 393 renal
[59] = system: MALME-3M melanoma

## COc1cc(C2SCC(=O)N2c2ccc(-n3c(-c4ccccc4)nc4ccccc4c3=O)cc2)cc(OC)c1OC (stereo not drawn)
[1]
  TGI: > 100 µM
[2]
  TGI: > 100 µM
[3]
  TGI: > 100 µM
[4]
  TGI: > 100 µM
[5]
  TGI: > 100 µM
[6]
  TGI: > 100 µM
[7]
  TGI: > 100 µM
[8]
  TGI: > 100 µM
[9]
  TGI: > 100 µM
[10]
  TGI: > 100 µM
[11]
  TGI: > 100 µM
[12]
  TGI: > 100 µM
[13]
  TGI: > 100 µM
[14]
  TGI: > 100 µM
[15]
  TGI: > 100 µM
[16]
  TGI: > 100 µM
[17]
  TGI: > 100 µM
[18]
  TGI: > 100 µM
[19]
  TGI: > 100 µM
[20]
  TGI: > 100 µM
[21]
  TGI: > 100 µM
[22]
  TGI: > 100 µM
[23]
  TGI: 84.2 µM
[24]
  TGI: > 100 µM
[25]
  TGI: > 100 µM
[26]
  TGI: > 100 µM
[27]
  TGI: > 100 µM
[28]
  TGI: > 100 µM
[29]
  TGI: > 100 µM
[30]
  TGI: > 100 µM
[31]
  TGI: > 100 µM
[32]
  TGI: > 100 µM
[33]
  TGI: > 100 µM
[34]
  TGI: > 100 µM
[35]
  TGI: > 100 µM
[36]
  TGI: > 100 µM
[37]
  TGI: > 100 µM
[38]
  TGI: > 100 µM
[39]
  TGI: > 100 µM
[40]
  TGI: > 100 µM
[41]
  TGI: > 100 µM
[42]
  TGI: > 100 µM
[43]
  TGI: > 100 µM
[44]
  TGI: > 100 µM
[45]
  TGI: > 100 µM
[46]
  TGI: > 100 µM
[47]
  TGI: > 100 µM
[48]
  TGI: > 100 µM
[49]
  TGI: > 100 µM
[50]
  TGI: > 100 µM
[51]
  TGI: 71.4 µM
[52]
  TGI: > 100 µM
[53]
  TGI: > 100 µM
[54]
  TGI: > 100 µM

## O=C1O/C(=C\c2ccccc2)N(c2ccccc2)C1=O
[1]
  TGI: > 100 µM
[2]
  TGI: > 100 µM
[3]
  TGI: > 100 µM
[4]
  TGI: > 100 µM
[5]
  TGI: > 100 µM
[6]
  TGI: > 100 µM
[7]
  TGI: > 100 µM
[8]
  TGI: > 100 µM
[9]
  TGI: > 100 µM
[55]
  TGI: > 100 µM
[11]
  TGI: > 100 µM
[13]
  TGI: > 100 µM
[14]
  TGI: > 100 µM
[15]
  TGI: > 100 µM
[16]
  TGI: > 100 µM
[56]
  TGI: > 100 µM
[17]
  TGI: > 100 µM
[18]
  TGI: > 100 µM
[19]
  TGI: > 100 µM
[20]
  TGI: > 100 µM
[21]
  TGI: > 100 µM
[22]
  TGI: > 100 µM
[23]
  TGI: > 100 µM
[24]
  TGI: > 100 µM
[25]
  TGI: > 100 µM
[26]
  TGI: > 100 µM
[27]
  TGI: > 100 µM
[28]
  TGI: > 100 µM
[29]
  TGI: > 100 µM
[57]
  TGI: > 100 µM
[30]
  TGI: > 100 µM
[31]
  TGI: > 100 µM
[32]
  TGI: > 100 µM
[33]
  TGI: > 100 µM
[34]
  TGI: > 100 µM
[35]
  TGI: > 100 µM
[36]
  TGI: > 100 µM
[37]
  TGI: > 100 µM
[38]
  TGI: > 100 µM
[39]
  TGI: > 100 µM
[40]
  TGI: > 100 µM
[41]
  TGI: > 100 µM
[42]
  TGI: > 100 µM
[43]
  TGI: > 100 µM
[44]
  TGI: > 100 µM
[45]
  TGI: > 100 µM
[46]
  TGI: > 100 µM
[47]
  TGI: > 100 µM
[48]
  TGI: > 100 µM
[49]
  TGI: > 100 µM
[50]
  TGI: > 100 µM
[58]
  TGI: > 100 µM
[51]
  TGI: > 100 µM
[52]
  TGI: > 100 µM
[53]
  TGI: > 100 µM
[54]
  TGI: > 100 µM

## NC(N)=NS(=O)(=O)c1ccc(NNc2c3ccccc3nc3c(C(=O)Nc4ccc(S(=O)(=O)N=C(N)N)cc4)cccc23)cc1
[1]
  TGI: > 100 µM
[2]
  TGI: 63.6 µM
[3]
  TGI: > 100 µM
[4]
  TGI: > 100 µM
[5]
  TGI: > 100 µM
[6]
  TGI: > 100 µM
[7]
  TGI: > 100 µM
[8]
  TGI: > 100 µM
[9]
  TGI: > 100 µM
[10]
  TGI: > 100 µM
[55]
  TGI: > 100 µM
[11]
  TGI: > 100 µM
[12]
  TGI: > 100 µM
[13]
  TGI: 95.8 µM
[14]
  TGI: > 100 µM
[15]
  TGI: > 100 µM
[16]
  TGI: > 100 µM
[56]
  TGI: > 100 µM
[17]
  TGI: > 100 µM
[18]
  TGI: > 100 µM
[19]
  TGI: > 100 µM
[20]
  TGI: > 100 µM
[21]
  TGI: > 100 µM
[23]
  TGI: > 100 µM
[24]
  TGI: > 100 µM
[25]
  TGI: > 100 µM
[26]
  TGI: 89.6 µM
[27]
  TGI: > 100 µM
[28]
  TGI: > 100 µM
[29]
  TGI: > 100 µM
[57]
  TGI: > 100 µM
[30]
  TGI: > 100 µM
[31]
  TGI: > 100 µM
[32]
  TGI: > 100 µM
[33]
  TGI: 80.4 µM
[34]
  TGI: > 100 µM
[35]
  TGI: > 100 µM
[36]
  TGI: > 100 µM
[37]
  TGI: > 100 µM
[38]
  TGI: > 100 µM
[39]
  TGI: > 100 µM
[40]
  TGI: > 100 µM
[41]
  TGI: > 100 µM
[42]
  TGI: > 100 µM
[59]
  TGI: 79.1 µM
[43]
  TGI: > 100 µM
[44]
  TGI: > 100 µM
[45]
  TGI: > 100 µM
[46]
  TGI: 67.1 µM
[47]
  TGI: > 100 µM
[48]
  TGI: > 100 µM
[49]
  TGI: > 100 µM
[50]
  TGI: > 100 µM
[58]
  TGI: > 100 µM
[51]
  TGI: > 100 µM
[52]
  TGI: 60.1 µM
[53]
  TGI: 88.8 µM
[54]
  TGI: > 100 µM

## COc1ccc(S(=O)(=O)NC(CCC(=O)NN)C(=O)NN)cc1 (stereo not drawn)
[1]
  TGI: > 100 µM
[2]
  TGI: > 100 µM
[3]
  TGI: > 100 µM
[4]
  TGI: > 100 µM
[5]
  TGI: > 100 µM
[6]
  TGI: > 100 µM
[7]
  TGI: > 100 µM
[8]
  TGI: > 100 µM
[9]
  TGI: > 100 µM
[10]
  TGI: > 100 µM
[55]
  TGI: > 100 µM
[11]
  TGI: > 100 µM
[12]
  TGI: > 100 µM
[13]
  TGI: > 100 µM
[14]
  TGI: > 100 µM
[15]
  TGI: > 100 µM
[16]
  TGI: > 100 µM
[56]
  TGI: > 100 µM
[17]
  TGI: > 100 µM
[18]
  TGI: > 100 µM
[19]
  TGI: > 100 µM
[20]
  TGI: > 100 µM
[21]
  TGI: > 100 µM
[22]
  TGI: > 100 µM
[23]
  TGI: > 100 µM
[24]
  TGI: > 100 µM
[25]
  TGI: > 100 µM
[26]
  TGI: > 100 µM
[27]
  TGI: > 100 µM
[28]
  TGI: > 100 µM
[29]
  TGI: > 100 µM
[30]
  TGI: > 100 µM
[31]
  TGI: > 100 µM
[32]
  TGI: > 100 µM
[33]
  TGI: > 100 µM
[34]
  TGI: > 100 µM
[35]
  TGI: > 100 µM
[36]
  TGI: > 100 µM
[37]
  TGI: > 100 µM
[38]
  TGI: > 100 µM
[39]
  TGI: > 100 µM
[40]
  TGI: > 100 µM
[41]
  TGI: > 100 µM
[42]
  TGI: > 100 µM
[59]
  TGI: > 100 µM
[43]
  TGI: > 100 µM
[44]
  TGI: > 100 µM
[46]
  TGI: > 100 µM
[47]
  TGI: > 100 µM
[48]
  TGI: > 100 µM
[49]
  TGI: > 100 µM
[51]
  TGI: > 100 µM
[52]
  TGI: > 100 µM
[53]
  TGI: > 100 µM
[54]
  TGI: > 100 µM
